Reference: PubChem BioAssay (NCI)
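Compound exposure: 48 hours, 5 concentrations, 96-well plates. The concentration for full growth arrest is given as TGI.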

Tests used:
Assay in all cases: NCI-60 cell line screen, 48 h
SK-MEL-28 melanoma = tested on: SK-MEL-28 melanoma
TK-10 renal = tested on: TK-10 renal
RPMI-8226 leukemia = tested on: RPMI-8226 leukemia
OVCAR-8 ovarian = tested on: OVCAR-8 ovarian
A549 NSCLC = tested on: A549 NSCLC
KM12 colon = tested on: KM12 colon
DU-145 prostate = tested on: DU-145 prostate
SF-295 CNS = tested on: SF-295 CNS
LOX IMVI melanoma = tested on: LOX IMVI melanoma
SF-539 CNS = tested on: SF-539 CNS
IGROV1 ovarian = tested on: IGROV1 ovarian
SK-MEL-5 melanoma = tested on: SK-MEL-5 melanoma
NCI-H226 lung = tested on: NCI-H226 lung
RXF 393 renal = tested on: RXF 393 renal
COLO 205 colon = tested on: COLO 205 colon
HL-60(TB) leukemia = tested on: HL-60(TB) leukemia
HS 578T breast = tested on: HS 578T breast
PC-3 prostate = tested on: PC-3 prostate
OVCAR-4 ovarian = tested on: OVCAR-4 ovarian
UO-31 renal = tested on: UO-31 renal
A498 renal = tested on: A498 renal
K-562 leukemia = tested on: K-562 leukemia
BT-549 breast = tested on: BT-549 breast
MDA-MB-231 breast = tested on: MDA-MB-231 breast
SNB-19 CNS = tested on: SNB-19 CNS
MALME-3M melanoma = tested on: MALME-3M melanoma
SN12C renal = tested on: SN12C renal
ACHN renal = tested on: ACHN renal
MOLT-4 leukemia = tested on: MOLT-4 leukemia
NCI-H522 lung = tested on: NCI-H522 lung
NCI-H23 lung = tested on: NCI-H23 lung
SR leukemia = tested on: SR leukemia
CCRF-CEM leukemia = tested on: CCRF-CEM leukemia
U251 CNS = tested on: U251 CNS
UACC-257 melanoma = tested on: UACC-257 melanoma
HOP-62 NSCLC = tested on: HOP-62 NSCLC
OVCAR-3 ovarian = tested on: OVCAR-3 ovarian
SF-268 CNS = tested on: SF-268 CNS
EKVX NSCLC = tested on: EKVX NSCLC
HCT-15 colon = tested on: HCT-15 colon
786-0 renal = tested on: 786-0 renal
HOP-92 NSCLC = tested on: HOP-92 NSCLC
OVCAR-5 ovarian = tested on: OVCAR-5 ovarian
CAKI-1 renal = tested on: CAKI-1 renal
NCI-H460 lung = tested on: NCI-H460 lung
MCF7 breast = tested on: MCF7 breast
HCC-2998 colon = tested on: HCC-2998 colon
HT29 colon = tested on: HT29 colon
MDA-MB-435 = tested on: MDA-MB-435
SNB-75 CNS = tested on: SNB-75 CNS
NCI/ADR-RES ovarian = tested on: NCI/ADR-RES ovarian
HCT-116 colon = tested on: HCT-116 colon
SW-620 colon = tested on: SW-620 colon
T-47D breast = tested on: T-47D breast
M14 melanoma = tested on: M14 melanoma
UACC-62 melanoma = tested on: UACC-62 melanoma
SK-MEL-2 melanoma = tested on: SK-MEL-2 melanoma
SK-OV-3 ovarian = tested on: SK-OV-3 ovarian

COC1(OC)CC(CO)(CNc2nc(N)nc(Cl)c2C=O)C1
TGI (SK-MEL-28 melanoma): > 100 µM
TGI (TK-10 renal): > 100 µM
TGI (RPMI-8226 leukemia): > 100 µM
TGI (OVCAR-8 ovarian): > 100 µM
TGI (A549 NSCLC): > 100 µM
TGI (KM12 colon): > 100 µM
TGI (DU-145 prostate): > 100 µM
TGI (SF-295 CNS): > 100 µM
TGI (LOX IMVI melanoma): 35.2 µM
TGI (SF-539 CNS): > 100 µM
TGI (IGROV1 ovarian): 48.3 µM
TGI (SK-MEL-5 melanoma): > 100 µM
TGI (NCI-H226 lung): > 100 µM
TGI (RXF 393 renal): > 100 µM
TGI (COLO 205 colon): > 100 µM
TGI (HL-60(TB) leukemia): 35.8 µM
TGI (HS 578T breast): > 100 µM
TGI (PC-3 prostate): 77.4 µM
TGI (OVCAR-4 ovarian): 90.4 µM
TGI (UO-31 renal): > 100 µM
TGI (A498 renal): > 100 µM
TGI (K-562 leukemia): 32.1 µM
TGI (BT-549 breast): > 100 µM
TGI (MDA-MB-231 breast): 43.9 µM
TGI (SNB-19 CNS): > 100 µM
TGI (MALME-3M melanoma): > 100 µM
TGI (SN12C renal): > 100 µM
TGI (ACHN renal): 13 µM
TGI (MOLT-4 leukemia): 60.1 µM
TGI (NCI-H522 lung): 3.96 µM
TGI (NCI-H23 lung): 48.5 µM
TGI (SR leukemia): 79.5 µM
TGI (CCRF-CEM leukemia): > 100 µM
TGI (U251 CNS): > 100 µM
TGI (UACC-257 melanoma): 71.6 µM
TGI (HOP-62 NSCLC): > 100 µM
TGI (OVCAR-3 ovarian): > 100 µM
TGI (SF-268 CNS): > 100 µM
TGI (EKVX NSCLC): 52.2 µM
TGI (HCT-15 colon): > 100 µM
TGI (786-0 renal): > 100 µM
TGI (HOP-92 NSCLC): 36.2 µM
TGI (OVCAR-5 ovarian): > 100 µM
TGI (CAKI-1 renal): > 100 µM
TGI (NCI-H460 lung): > 100 µM
TGI (MCF7 breast): > 100 µM
TGI (HCC-2998 colon): 84.5 µM
TGI (HT29 colon): > 100 µM
TGI (MDA-MB-435): 85.9 µM
TGI (SNB-75 CNS): > 100 µM
TGI (NCI/ADR-RES ovarian): 88.1 µM
TGI (HCT-116 colon): > 100 µM
TGI (SW-620 colon): > 100 µM

CSC(=NC#N)S/C=C/C(=O)c1ccc(Cl)cc1
TGI (SK-MEL-28 melanoma): 46.5 µM
TGI (TK-10 renal): 58.5 µM
TGI (OVCAR-8 ovarian): 47.4 µM
TGI (A549 NSCLC): > 100 µM
TGI (KM12 colon): > 100 µM
TGI (T-47D breast): 75.1 µM
TGI (DU-145 prostate): > 100 µM
TGI (SF-295 CNS): 95.5 µM
TGI (SF-539 CNS): 52.3 µM
TGI (IGROV1 ovarian): 44.2 µM
TGI (SK-MEL-5 melanoma): 32.7 µM
TGI (RXF 393 renal): 42.4 µM
TGI (COLO 205 colon): 71.6 µM
TGI (HL-60(TB) leukemia): > 100 µM
TGI (HS 578T breast): 75.9 µM
TGI (PC-3 prostate): > 100 µM
TGI (OVCAR-4 ovarian): > 100 µM
TGI (UO-31 renal): 45.4 µM
TGI (K-562 leukemia): > 100 µM
TGI (M14 melanoma): 45.1 µM
TGI (SNB-19 CNS): > 100 µM
TGI (UACC-62 melanoma): 74.4 µM
TGI (MALME-3M melanoma): 55.5 µM
TGI (SN12C renal): 84.7 µM
TGI (ACHN renal): > 100 µM
TGI (MOLT-4 leukemia): > 100 µM
TGI (NCI-H522 lung): 38.5 µM
TGI (NCI-H23 lung): 52.4 µM
TGI (SR leukemia): 12.6 µM
TGI (CCRF-CEM leukemia): > 100 µM
TGI (U251 CNS): > 100 µM
TGI (UACC-257 melanoma): 52.2 µM
TGI (HOP-62 NSCLC): > 100 µM
TGI (OVCAR-3 ovarian): 34.7 µM
TGI (SF-268 CNS): 62.2 µM
TGI (SK-MEL-2 melanoma): 45 µM
TGI (SK-OV-3 ovarian): > 100 µM
TGI (EKVX NSCLC): > 100 µM
TGI (HCT-15 colon): > 100 µM
TGI (786-0 renal): 40.8 µM
TGI (HOP-92 NSCLC): > 100 µM
TGI (OVCAR-5 ovarian): 99.8 µM
TGI (CAKI-1 renal): 35.6 µM
TGI (NCI-H460 lung): > 100 µM
TGI (MCF7 breast): 79.3 µM
TGI (HCC-2998 colon): > 100 µM
TGI (HT29 colon): 46.4 µM
TGI (MDA-MB-435): 64.3 µM
TGI (SNB-75 CNS): > 100 µM
TGI (NCI/ADR-RES ovarian): 63.1 µM
TGI (HCT-116 colon): 34.5 µM
TGI (SW-620 colon): 40.6 µM
